Test results as given in US8962846B2, “Melanocortin receptor antagonist compounds, process for preparing them and use thereof in human medicine and cosmetics” (Galderma Research & Development, priority 2008, dated 2015).
pEC50: −log10 of the molar value.

Tests used:
hMC4-R = biological target: T1, hMC4-R (Homo sapiens, UniProt P32245); assay: Transactivation test: melanocortin receptors (CRE-Luc luciferase), hMC4-R; assay type: cell-based; settings: HEK293 transfected with pCRE-Luc and receptor; 10-point dose response from 10 μM; antagonist behaviour tested in presence of 1 nM NDP-MSH; 6 hours incubation
T1 construct: expressed in transfected cells; host or cells: HEK293
Description: (§1) The lines HEK293 are transfected with vectors pCRE-Luc and hMCl1R or hMCl4R. The cells are cultured at 37° C. and 5% CO2, in DMEM medium supplemented with 10% foetal calf serum.
(§2) In the presence of an activator (agonist), the melanocortin receptor will activate the cAMP pathway, which, via the vector CRE-Luc, will lead to the synthesis of luciferase. After addition of a lysis buffer containing a luminescent luciferase substrate, the luminescence proportional to the degree of activation or inhibition of receptor may be measured.
(§3) The products are dissolved at 10 mM in DMSO. They are tested as a response dose at 0.1% of DMSO final. The range comprising 10 points and a zero starts at 10 μM with four-fold dilutions. To test agonists, the products are tested alone. To determine the antagonist behaviour, the products of interest are tested in the presence of 1 nM NDP-MSH (reference agonist). The cells are inoculated at a rate of 5000 cells per well (384-well plate) in serum-free DMEM medium and incubated overnight at 37° C. and 5% CO2.
(§4) The products and the reference ligand (NDP-MSH) are added the following day and the plates are reincubated for 6 hours at 37° C. and 5% CO2. After adding the lysis buffer containing luciferin, the plates are read in a Top-Count machine. The results are normalized as percentage of activity using the 100% (cells+NDP-MSH at 10 nM) and 0% (cells alone) controls. An EC50 is calculated for each product using the XLFit software.

hMC1-R = biological target: T2, hMC1-R (Homo sapiens, UniProt Q01726); assay: Transactivation test: melanocortin receptors (CRE-Luc luciferase), hMC1-R; assay type: cell-based; settings: HEK293 transfected with pCRE-Luc and receptor; 10-point dose response from 10 μM; antagonist behaviour tested in presence of 1 nM NDP-MSH; 6 hours incubation
T2 construct: expressed in transfected cells; host or cells: HEK293
Description: as §1, §2, §3, §4

T1 sequence (P32245 whole entry): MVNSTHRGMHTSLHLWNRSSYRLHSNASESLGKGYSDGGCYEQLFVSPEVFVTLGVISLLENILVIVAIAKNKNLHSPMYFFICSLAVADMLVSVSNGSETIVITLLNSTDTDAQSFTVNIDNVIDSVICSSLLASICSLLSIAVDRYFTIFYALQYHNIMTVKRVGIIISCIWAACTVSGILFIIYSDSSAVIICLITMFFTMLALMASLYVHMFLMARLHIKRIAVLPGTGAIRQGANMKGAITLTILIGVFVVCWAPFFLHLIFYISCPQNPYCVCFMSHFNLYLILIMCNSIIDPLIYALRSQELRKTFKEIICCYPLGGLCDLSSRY
T2 sequence (Q01726 whole entry): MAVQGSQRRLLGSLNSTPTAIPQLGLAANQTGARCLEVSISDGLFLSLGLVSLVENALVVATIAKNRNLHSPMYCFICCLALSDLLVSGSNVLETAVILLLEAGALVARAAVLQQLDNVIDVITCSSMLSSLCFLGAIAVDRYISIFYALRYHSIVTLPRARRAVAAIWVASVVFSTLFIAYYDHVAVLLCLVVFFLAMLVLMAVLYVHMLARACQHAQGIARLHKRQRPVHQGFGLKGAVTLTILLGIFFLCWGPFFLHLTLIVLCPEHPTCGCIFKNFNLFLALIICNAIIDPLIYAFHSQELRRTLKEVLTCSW

Compound	pEC50 (hMC4-R)	pEC50 (hMC1-R)
CCOC(=O)C1(C2CCCCC2)CCN(C(=O)[C@@H](Cc2ccc(OC)cc2)NC(=S)NCCCc2c[nH]cn2)CC1 [Example 7, Ethyl 4-cyclohexyl-1-[(R)-2-{3-[3-(1H-imidazol-4-yl)propyl]-thioureido}-3-(4-methoxyphenyl)propionyl]piperidine-4-carboxylate]	7.30	6.00
CCCC(=O)C1(C2CCCCC2)CCN(C(=O)[C@@H](Cc2ccc(OC)cc2)NC(=O)NCCc2c[nH]nn2)CC1 [Example 3, 1-[(R)-2-(4-Butyryl-4-cyclohexylpiperidin-1-yl)-1-(4-methoxybenzyl)-2-oxoethyl]-3-[2-(1H-[1,2,3]triazol-4-yl)ethyl]urea]	7.30	
CCOC(=O)C1(C2CCCCC2)CCN(C(=O)[C@@H](Cc2ccc(Cl)c(Cl)c2)NC(=O)NCCc2c[nH]cn2)CC1 [Example 5, Ethyl 4-cyclohexyl-1-((R)-3-(3,4-dichlorophenyl)-2-{3-[2-(1H-imidazol-4-yl)ethyl]ureido}propionyl)piperidine-4-carboxylate]	7.82	
COc1ccc(CC(NC(=O)NCCc2c[nH]cn2)C(=O)N2CCC(C(=O)NC(C)(C)C)(C3CCCCC3)CC2)cc1 (centres unmarked) [Example 1, 4-Cyclohexyl-1-[2-{3-[2-(1H-imidazol-4-yl)ethyl]ureido}-3-(4-methoxyphenyl)propionyl]piperidine-4-tert-butylcarbamoyl]	7.22	
CCOC(=O)C1(C2CCCCC2)CCN(C(=O)[C@@H](Cc2ccc(OC)cc2)NC(=O)NCCCc2cnc[nH]2)CC1 [Example 4, Ethyl 4-cyclohexyl-1-[(R)-2-{3-[3-(3H-imidazol-4-yl)propyl]-ureido}-3-(4-methoxyphenyl)propionyl]piperidine-4-carboxylate]	7.70	6.30
CCOC(=O)C1(C2CCCCC2)CCN(C(=O)[C@@H](Cc2ccc(OC)cc2)NC(=S)NCCc2cn(C)cn2)CC1 [Example 8, Ethyl 4-cyclohexyl-1-((R)-3-(4-methoxyphenyl)-2-{3-[2-(1-methyl-1H-imidazol-4-yl)ethyl]thioureido}propionyl)piperidine-4-carboxylate]	7.30	6.00
CCOC(=O)C1(C2CCCCC2)CCN(C(=O)[C@@H](Cc2ccc(Cl)c(Cl)c2)NC(=O)NCCc2cncn2C)CC1 [Example 6, Ethyl 4-cyclohexyl-1-((R)-3-(3,4-dichlorophenyl)-2-{3-[2-(3-methyl-3H-imidazol-4-yl)ethyl]ureido}propionyl)piperidine-4-carboxylate]	8.00	
CCOC(=O)C1(C2CCCCC2)CCN(C(=O)[C@@H](Cc2ccc(Cl)cc2Cl)NC(=O)NCCc2c[nH]cn2)CC1 [Example 9, Ethyl 4-cyclohexyl-1-((R)-3-(2,4-dichlorophenyl)-2-{3-[2-(1H-imidazol-4-yl)ethy]ureido}propionyl)piperidine-4-carboxylate]	8.70	6.00
CCCC(=O)C1(C2CCCCC2)CCN(C(=O)[C@@H](Cc2ccc(OC)cc2)NC(=O)NCCc2cn(C)cn2)CC1 [Example 2, 1-[(R)-2-(4-Butyryl-4-cyclohexylpiperidin-1-yl)-1-(4-methoxybenzyl)-2-oxoethyl]-3-[2-(1-methyl-1H-imidazol-4-yl)ethyl]urea]	7.30	6.00
